In paper PMC11331178 (Journal of Advanced Research, 2023) one finds Kd data, which are given here for one compound.

Usually Kd stands for the constant that tells how readily two partners part at equilibrium. A higher Kd goes with a looser complex.

Structures are written as SMILES.

The test has as its target T1, TFEB (Homo sapiens, UniProt P19484).
T1 sequence (P19484 1-476 limits assumed): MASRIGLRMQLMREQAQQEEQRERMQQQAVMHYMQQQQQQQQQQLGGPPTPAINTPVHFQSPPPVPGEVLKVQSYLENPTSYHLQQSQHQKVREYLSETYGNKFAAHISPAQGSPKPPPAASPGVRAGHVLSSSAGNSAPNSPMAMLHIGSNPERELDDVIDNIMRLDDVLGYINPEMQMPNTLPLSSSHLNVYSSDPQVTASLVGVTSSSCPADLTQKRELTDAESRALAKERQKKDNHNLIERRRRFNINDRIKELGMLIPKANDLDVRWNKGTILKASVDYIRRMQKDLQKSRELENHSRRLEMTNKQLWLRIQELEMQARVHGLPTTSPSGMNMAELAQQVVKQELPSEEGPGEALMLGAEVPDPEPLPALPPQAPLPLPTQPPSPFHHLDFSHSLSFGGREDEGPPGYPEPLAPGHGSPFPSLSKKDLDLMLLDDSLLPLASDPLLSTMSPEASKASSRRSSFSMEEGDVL
Kind of test: SPR, Biacore S200, CM5 chip. The test is classed as binding. In general terms: In SPR one partner is held on a chip, and binding of the other changes the refractive index at the surface.

`C=C[C@]1(C)CC[C@@H](C(=C)C)C[C@H]1C(=C)C` [β-ELE] showed a Kd of 83 µM.
